Test results from patent publication US6620961B1, “Biarylalkylenecarbamic acid derivatives and bacteriocides for agricultural and horticultural use” (Kumiai Chemical Industry Co., Ltd., priority 1997, dated 2003).

Key:
Format in all cases: in vivo
Design in all cases: key: A: No diseased area; B: Diseased area of less than 25%; C: Diseased area of at least 25% but less than 50%; Diseased area of at least 50%
[1] = system: Pseudoperonospora cubensis; assay: Test for Preventive Effect on Cucumber Downy Mildew; settings: cucumber seedlings, wettable powder at 500 ppm active ingredient, 7 days after inoculation
Protocol: Test for Preventive Effect on Cucumber Downy Mildew 9 cucumber seeds (variety: Sagami-hanpaku) were sown in each 9 cmx9 cm polyvinyl chloride pot and grown in a greenhouse for 7 days. […] Then, the seedlings were inoculated with Pseudoperonospora cubensis zoosporangia in suspension by spraying and immediately placed in a moist chamber at 22° C. for 24 hours. Thereafter, the seedlings were placed in a greenhouse. 7 days after the inoculation, the total diseased area in each pot was observed and evaluated on the basis of the standards shown in Table 59. [table]

Venturia inaequalis = assay: Test for Preventive Effect on Apple Scab; settings: 14 days after inoculation; for Evaluation (diseased area of the upper two inoculated leaves): apple seedlings (Kogyoku), 500 ppm active ingredient, 20 ml per pot; for Evaluation (diseased areas of the upper two of the inoculated leaves): apple seedlings, wettable powder at 500 ppm active ingredient, preventive
Protocol: [table] Test for Preventive Effect on Apple Scab 5 apple seeds (variety: Kogyoku) were sown in each 9 cm×9 cm polyvinyl chloride pot and grown in a greenhouse for 20 days. […] Then, the seedlings were inoculated with Venturia inaequalis spores in suspension by spraying and immediately placed in a moist chamber at 22° C. for 48 hours. Thereafter, the seedlings were placed in a greenhouse for development of the disease. 14 days after the inoculation, the diseased areas of the upper two of the inoculated leaves were observed and evaluated on the basis of the standards shown in Table 59.

Erysiphe graminis = assay: Test for Preventive Effect on Wheat Powdery Mildew; settings: wheat seedlings (Norin-61-go), 500 ppm active ingredient, 10 ml per pot, 10 days after inoculation
Protocol: [table] Test for Preventive Effect on Wheat Powdery Mildew 9 wheat seeds (variety: […] Then, the seedlings were inoculated with […] graminis spores in suspension and placed in a greenhouse at 25 to 30° C. 10 days after the inoculation, the total diseases area of the first leaves in each pot was observed and evaluated on the basis of the standards shown in Table 59. The results are shown in Tables 67 to 71.

Botrytis cinerea = assay: Test for Preventive Effect on Cucumber Gray Mold; settings: cotyledonary cucumber seedlings (Sagami-hanziro), 500 ppm active ingredient, 10 ml per pot, 3 days after inoculation
Protocol: [table] Test for Preventive Effect on Cucumber Gray Mold 9 cucumber seeds (variety: Sagami-hanziro) were sown in each 9 cm−9 cm polyvinyl chloride pot and grown in a greenhouse for 7 days. […] Then, the seedlings were inoculated with milled Botrytis cinerea hyphae in solution by spraying and immediately placed in a moist chamber at 22° C. 3 days after the inoculation, the total diseased area in each pot was observed and evaluated on the basis of the standards shown in Table 59.

SMILES	Evaluation (total diseased area in each pot) [1]	Evaluation (diseased area of the upper two inoculated leaves) (Venturia inaequalis)	Evaluation (total diseased area of the first leaves in each pot) (Erysiphe graminis)	Evaluation (total diseased area in each pot) (Botrytis cinerea)	Evaluation (diseased areas of the upper two of the inoculated leaves) (Venturia inaequalis)
COC(=O)NC(C)c1cccc(-c2ccccc2)c1 (racemic) [3-1]	A	A	B (Diseased area of less than 25%)		
COC(=O)NC(C)c1cccc(-c2ccc(Cl)cc2)c1 (racemic) [3-5]		A	B (Diseased area of less than 25%)	B (Diseased area of less than 25%)	
COC(=O)NC(C)c1cccc(-c2cccc(C)c2)c1 (racemic) [3-6]	A	A	A		
COC(=O)NC(C)c1cccc(-c2cccc(C(F)(F)F)c2)c1 (racemic) [3-16]	A	A	A		
COC(=O)NC(C)c1cccc(-c2ccc(F)c(Cl)c2)c1 (racemic) [3-21]	A	A	B (Diseased area of less than 25%)		
COC(=O)NC(C)c1cc(-c2ccc(F)cc2)ccc1F (racemic) [3-28]		A	B (Diseased area of less than 25%)	B (Diseased area of less than 25%)	
COC(=O)NC(C)c1cc(-c2ccc(Cl)cc2)ccc1F (racemic) [3-30]		B (Diseased area of less than 25%)	B (Diseased area of less than 25%)	B (Diseased area of less than 25%)	
COC(=O)NCc1cccc(-c2cccc(Cl)c2)c1 [1-3]	A		A		A
COC(=O)NCc1cccc(-c2ccc(Cl)cc2)c1 [1-4]			B (Diseased area of less than 25%)	A	A
COC(=O)NCc1cccc(-c2ccc(F)cc2)c1 [1-7]	B (Diseased area of less than 25%)		A		A
COC(=O)NCc1cccc(-c2ccccc2C(F)(F)F)c1 [1-33]	B (Diseased area of less than 25%)		A		A
COC(=O)NCc1cccc(-c2cccc(C(F)(F)F)c2)c1 [1-34]	A		A		A
COC(=O)NCc1cccc(-c2ccc(C(F)(F)F)cc2)c1 [1-35]			A	B (Diseased area of less than 25%)	A
COC(=O)NCc1cccc(-c2cccc(OC)c2)c1 [1-41]	A		A		A
COC(=O)NCc1cccc(-c2ccc(OC)cc2)c1 [1-42]			B (Diseased area of less than 25%)	B (Diseased area of less than 25%)	A
COC(=O)NCc1cccc(-c2cccc([N+](=O)[O-])c2)c1 [1-103]	B (Diseased area of less than 25%)				A
COC(=O)NCc1cccc(-c2ccc(Cl)c(Cl)c2)c1 [1-118, Methyl N-[3-(3,4-dichlorophenyl)benzyl]carbamate]	B (Diseased area of less than 25%)		A		A
COC(=O)NCc1cccc(-c2cc(Cl)cc(Cl)c2)c1 [1-119]	B (Diseased area of less than 25%)		A		A

SMILES	Evaluation (total diseased area in each pot) [1]	Evaluation (diseased area of the upper two inoculated leaves) (Venturia inaequalis)	Evaluation (total diseased area of the first leaves in each pot) (Erysiphe graminis)	Evaluation (total diseased area in each pot) (Botrytis cinerea)	Evaluation (diseased areas of the upper two of the inoculated leaves) (Venturia inaequalis)
COC(=O)NCc1cccc(-c2ccc(C)c(C)c2)c1 [1-125]	A		A		A
CNC(=O)NCc1cccc(-c2ccccc2)c1 [1-253]	B (Diseased area of less than 25%)				
COC(=O)N(Cc1cccc(-c2cccc(C)c2)c1)OC [1-266]	B (Diseased area of less than 25%)		A		A
COC(=O)NCc1ccc(OC)c(-c2ccccc2)c1 [2-65]				B (Diseased area of less than 25%)	B (Diseased area of less than 25%)
COC(=O)NCc1cc(C)cc(-c2ccccc2)c1 [2-91]	B (Diseased area of less than 25%)		A		A
COC(=O)NCc1cc(C)cc(-c2cccc(C(F)(F)F)c2)c1 [2-98]	B (Diseased area of less than 25%)		A		A
COC(=O)NCc1cc(-c2ccccc2)ccc1F [2-102]	A		A		A
COC(=O)NCc1cc(-c2cccc(Cl)c2)ccc1F [2-106]	A		A		A
COC(=O)NCc1cc(-c2ccc(Cl)cc2)ccc1F [2-107]	A		A		A
COC(=O)NCc1cc(-c2cccc(C)c2)ccc1F [2-109]	A		A		A
COC(=O)NCc1cc(-c2ccc(C)cc2)ccc1F [2-110]	A		B (Diseased area of less than 25%)		A
COC(=O)NCc1cc(-c2cccc(C(C)C)c2)ccc1F [2-113]	B (Diseased area of less than 25%)		A		A
COC(=O)NCc1cc(-c2ccc(Cl)cc2)ccc1OC [2-332]		A	B (Diseased area of less than 25%)	B (Diseased area of less than 25%)	
COC(=O)NCc1cc(-c2cccc(C)c2)ccc1OC [2-333]	A	A	B (Diseased area of less than 25%)		
COC(=O)NCc1cc(-c2cccc(O)c2)ccc1Cl [2-448]		A	A	A	
COC(=O)NCc1cc(-c2ccc(Br)cc2)ccc1Cl [2-453]		A	A	A	
COC(=O)N(Cc1cccc(-c2ccccc2)c1C)OC [4-22, Methyl N-methoxy-N-(2-methyl-3-phenylbenzyl)carbamate]		A	A		
COC(=O)NCc1cccc(-c2ccc3ccccc3c2C)c1 [6-1]		A	B (Diseased area of less than 25%)		
